In US20230323294A1, “DIFFERENTIATION OF CORTICAL NEURONS FROM HUMAN PLURIPOTENT STEM CELLS” (priority 2016, published 2023):

What was measured:
Type in all cases: cell-based, human
hPSC-derived neurons = experiment: Survival of cultures maintained in P/S/D in the final differentiation step; details: 3 uM
hPSCs [1] = experiment: Neuronal induction efficiency, intracellular flow cytometry for TUJ1; details: day 13
hPSCs [2] = experiment: Total cell / neuron yield in culture (FIG. 1G)
Excerpt: FIGS. 1A-1I depict illustrations, images and graphs showing the rapid induction of cortical neurons from human pluripotent stem cells using a combinatorial small molecule-based protocol. FIG. 1A is a schematic illustration of the pathway manipulations to generate neural crest versus forebrain fates and neural precursor versus accelerated neuronal fates. Protocols for the derivation of SOX10+ neural crest precursor, PAX6+ CNS precursors and BRN3A/ISL1+sensory neurons have been reported while the current invention is focused on a strategy for the rapid induction of cortical neurons. […] FIG. 1C depicts graphs of the time-course quantitative analyses of CNS (PAX6::H2B-GFP, left), NC (SOX10::GFP, middle) and placode (SIX1::H2B-GFP, right) induction under the various protocols. […] FIG. 1F is a graph showing the quantification of the TUJ1 data from FIGS. 1D and 1E at day 13 of differentiation by intracellular flow. […] FIG. 1G depicts graphs of the P and S single and combinatorial dose response analyses based on quantification of the percentages of NESTIN+ and TUJ1+ cells by intracellular flow cytometry (upper), and an estimate of the total neurons in culture per cm^2 (for every hPSC plated at day 0 under P1S5D and P8S10D conditions, ˜0.7 and 0.2 neurons were obtained respectively at day 13). […]

AMPA receptors = experiment: Spontaneous excitatory postsynaptic currents (sEPSCs) recording; details: P1S5D+none conditions at day 40
hPSCs [3] = experiment: Proliferation (pH3) and cell death (cleaved Caspase 3) after P/S/D treatment; details: for cell proliferation (phospho-Histone 3): as early as 24 hrs after P/S treatment (day 3)
Excerpt: (a) Percentage of mitotic cells expressing phospho-histone 3 (pH3) among total cells at one day after P/S/D treatment (day 3 of differentiation). (b) Percentage of apoptotic cells expressing cleaved caspase 3 (CC3) among total cells at one day after P/S/D treatment (day 3 of differentiation). The conditions highlighted in the dashed line boxes in a,b are the P1 dosage groups aligned by ascending order of S concentration. For a,b, N=4 randomly selected photo frames from each of the 2 independent batches of cell cultures. Statistical analysis was carried out using the Dunnett's multiple comparison test to compare each dosage with LSB+X at day 3 of differentiation. […] (c) Summary of grouped results in a following the order of increasing concentration of P, or increasing concentration of S (d). (e) Summary of grouped results in b following the order of increasing concentration of P, or increasing concentration of S (f). […] Black dots represent values from quantification of individual photos frames. […]
Increased total neuron yields were obtained when lower PD concentrations were combined with SU exposure in an effort to balance neuronal induction efficiency and overall cell toxicity. […] To understand whether reduced yield is due to rapid cell cycle exit or direct toxicity, we measured phospho-Histone 3 (pH3) and cleaved Caspase 3 (CC3) as markers of cell proliferation and death, respectively. […]
EdU was added to the cultures at 5 μM for a window of 48 hrs each starting at various time points of differentiation (day 8, 13, 18, 23, 28, 33), and the cells were fixed at day 40 with 4% paraformaldehyde for 20 mins. EdU was detected with the Click-iT EdU Imaging Kit (Invitrogen) according to the specifications of the manufacturer. Quantification of EdU positive and cortical layer marker positive neurons in the EdU labeling experiments, and the quantification of marker positive neurons and total cells in the long-term culture was carried out using ImageJ with ITCN plugin for nuclei quantification, combined with manual counting. […] All quantification results were plotted in Prism (version 6.0, GraphPad).

hPSCs [4] = experiment: qRT-PCR gene expression analysis during differentiation; details: forebrain marker, day 13
Experimental: Cells were lysed with Trizol Reagent (Life Technology) and stored in -20° C. Total RNA was extracted using phenol/chloroform and isopropanol precipitation, and dissolved in ddH2O. cDNA was made using the QuantiTech Reverse Transcription Kit (Qiagen). Quantitative RT-PCR was performed using the Mastercycler […]×2 (Eppendorf), and GAPDH was used as the housekeeping gene control for normalization. Delta Delta Ct and fold changes were calculated and results were plotted in Prism (version 6.0, GraphPad).

sodium channel = tested on: sodium channel
[5] = additional treatment on top of PD and SU

Cc1c[nH]c(-c2cnc(NCCNc3ccc(C#N)cn3)nc2-c2ccc(Cl)cc2Cl)n1 [CHIR]
effect on survival of cultures maintained in P/S/D (hPSC-derived neurons): strong pro-survival effect

C[C@H](NC(=O)Cc1cc(F)cc(F)c1)C(=O)N[C@H](C(=O)OC(C)(C)C)c1ccccc1 [DAPT]
efficiency of neuronal induction (hPSCs [1]; [5]): further increased | effect on overall neuron yield (hPSCs [2]; [5]): did not negatively affect overall neuron yield

NS(=O)(=O)c1cccc2c1c([N+](=O)[O-])cc1nc(O)c(O)nc12 [NBQX]
spontaneous excitatory postsynaptic currents (sEPSCs) (AMPA receptors): inhibited

O=C(NOC[C@H](O)CO)c1ccc(F)c(F)c1Nc1ccc(I)cc1F [PD0325901, N-(2,3-dihydroxy-propoxy)-3,4-difluoro-2-(2-fluoro-4-iodo-phenylamino)-benzamide]
TUJ1+% (hPSCs [1]; added to LSB+X, at high concentrations): > 50% | yield in total cell numbers (hPSCs [2]; at high concentrations, suggesting toxicity): low yield in total cell numbers | cell proliferation (phospho-Histone 3) (hPSCs [3]): reduced cell proliferation | FOXG1 induction (hPSCs [4]): reduced the efficiency of FOXG1 induction

Cc1c[nH]c(/C=C2\C(=O)Nc3ccccc32)c1CCC(=O)O [SU5402, 2-[(1,2-Dihydro-2-oxo-3H-indol-3-ylidene)methyl]-4-methyl-1H-pyrrole-3-pr-opanoic acid]
cell proliferation (phospho-Histone 3) (hPSCs [3]): reduced cell proliferation | cell death (cleaved Caspase 3) (hPSCs [3]; one day after P/S/D treatment (day 3)): observed only at high doses

NC1=N[C@H](O)[C@H]2[C@H]3O[C@]4(O)O[C@@H]([C@@H](O)[C@@]2(N1)[C@@H]4O)[C@]3(O)CO [Tetrodotoxin]
voltage-dependent sodium channel responses (sodium channel): blocked
